One test deals with NOD1. The test can be described thus: Tri-DAP stimulated IL-8 release in HT-29 cells. The test is classed as cell-based, human. The following applies: HT-29, 50 µg/mL Tri-DAP 24 hours, same supernatants. How it is done:
For assay, cells were seeded into 96 well plates (90,000 cells/well) in DMEM containing 1% FBS and pre-incubated with compounds for 1 hour before addition of either 25 µg/mL Tri-DAP or 1 µg/mL MDP. The level of IL-8 released into medium after 24-hour incubation was determined by HTRF assay (Cisbio) as described above and fluorescence measured on an Envision model 2102 multilabel plate reader (Perkin Elmer). The activity of compounds against NOD1-induced type I interferon response was determined by inhibition of Tri-DAP stimulated IP-10 secretion in HT-29 cells, maintained in the same medium as for HCT116 cells. The HT-29 cells were seeded into 96 well plates (60,000 cells/well) in DMEM with 1% FBS, pre-incubated with compounds for 1 hour and stimulated for 24 hours with 50 µg/mL Tri-DAP. The concentration of IL-8 released into the medium was measured by HTRF as above, IP-10 was measured using the IP-10/CXCL10 Quantikine ELISA kit (R&D Systems), and IFNβ was measured using the MA6000 human IFN-β tissue culture kit (Meso Scale Discovery).

The next test has as its system murine NOD1. The test can be described thus: NOD1 stimulated KC (CXCL1) production in murine bone marrow derived macrophages. The format is cell-based, mouse. The following applies: murine BMDM, 25 µg/mL FK156 or Tri-DAP, 24 hours. The protocol:
C57BL/6 mice were obtained from the Jackson Laboratories. Bone marrow was flushed from the femurs and tibiae of adult (∼3 month old) mice with serum-free DMEM medium using a 23-gauge needle and syringe. A fine cell suspension was obtained by gentle aspiration and passage through a […] cell strainer. After centrifugation and re-suspending in DMEM supplemented with 10%HI-FBS, the mononuclear cells obtained from each animal were plated into the central 60 wells of a 96-well plate. After 24 hours, the medium and non-adherent cells were removed and replaced with DMEM with 10%HI-FBS containing 10 ng/mL M-CSF and the cells cultured for 1 week with two additional medium changes. After this time the medium was aspirated and the cells pre-treated with compounds for 1 hour and then stimulated for 24 hours with either 25 µg/mL Tri-DAP or FK156. Each treatment was performed in triplicate wells. The concentration of murine KC (CXCL1) together with 6 other cytokines/chemokines present in conditioned medium was then determined using the murine pro-inflammatory 7-plex assay (Meso Scale Discovery).

The target in the next test is T1, endogenous NOD1 (Homo sapiens, UniProt Q9Y239).
T1 construct: Compound activity on endogenous NOD1 and NOD2 receptors was determined; host or cells: HCT116
T1 sequence (Q9Y239 1-953): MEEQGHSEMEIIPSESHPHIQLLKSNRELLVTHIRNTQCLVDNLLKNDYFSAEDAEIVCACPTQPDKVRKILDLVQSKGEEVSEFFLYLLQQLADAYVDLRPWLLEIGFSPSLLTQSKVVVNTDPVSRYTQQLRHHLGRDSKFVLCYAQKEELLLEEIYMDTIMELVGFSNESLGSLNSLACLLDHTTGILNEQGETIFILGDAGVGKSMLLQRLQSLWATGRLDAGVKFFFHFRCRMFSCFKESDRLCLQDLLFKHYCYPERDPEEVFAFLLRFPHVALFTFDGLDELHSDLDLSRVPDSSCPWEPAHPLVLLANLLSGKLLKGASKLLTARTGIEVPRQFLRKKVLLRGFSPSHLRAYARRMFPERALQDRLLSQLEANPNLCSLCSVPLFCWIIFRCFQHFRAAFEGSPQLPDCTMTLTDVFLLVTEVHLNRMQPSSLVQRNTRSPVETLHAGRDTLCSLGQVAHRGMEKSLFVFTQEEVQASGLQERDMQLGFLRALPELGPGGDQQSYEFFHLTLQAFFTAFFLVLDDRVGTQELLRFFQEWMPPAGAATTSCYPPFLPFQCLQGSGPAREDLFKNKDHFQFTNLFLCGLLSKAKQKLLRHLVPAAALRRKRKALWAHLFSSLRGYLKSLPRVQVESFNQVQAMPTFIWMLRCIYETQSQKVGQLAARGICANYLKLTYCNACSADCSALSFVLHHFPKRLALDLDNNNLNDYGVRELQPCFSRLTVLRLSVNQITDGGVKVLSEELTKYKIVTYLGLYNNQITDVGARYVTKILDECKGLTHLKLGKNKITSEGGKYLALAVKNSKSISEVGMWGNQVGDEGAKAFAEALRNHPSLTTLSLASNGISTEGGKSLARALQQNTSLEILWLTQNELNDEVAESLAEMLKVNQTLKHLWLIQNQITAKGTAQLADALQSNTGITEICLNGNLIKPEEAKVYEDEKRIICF
In words: Tri-DAP-stimulated IL-8 release in HCT116 cells. The test is classed as cell-based. Particulars: HCT116, increasing compound concentrations 0.005–1 µM, Tri-DAP 0.6–75 µg/mL.

Molecules are shown by their SMILES.

In the test with NOD1, `Cc1ccc(S(=O)(=O)Nc2cccc(C(=O)Nc3ccc4nc(C)sc4c3)c2)cc1` [Compound 16] had an IC50 of 40 nM. In addition, the “inhibition of FK156 or Tri-DAP-stimulated KC production” value in the test with murine NOD1 is recorded as “partial inhibition at best”. On endogenous NOD1, the “effect on Tri-DAP concentration response (IL-8)” value is “progressive reduction in both the apparent EC50 and maximum response of Tri-DAP”.

Turning to `Cc1nc2ccccc2c(=O)n1-c1ccc(Cl)c(NS(=O)(=O)c2ccccc2F)c1` [Compound 22], inhibition with NOD1 was half-maximal at 30 nM (IC50). Further, in the test on murine NOD1, the “inhibition of FK156 or Tri-DAP-stimulated KC production” value was “little or no inhibitory activity”. On endogenous NOD1, the “effect on Tri-DAP concentration response (IL-8)” value was “progressive reduction in both the apparent EC50 and maximum response of Tri-DAP”.

Usually IC50 stands for the concentration at which inhibition is half-maximal. Higher therefore signals weaker potency.
